Test results reported in ChEMBL document CHEMBL5291721, “A preclinical secondary pharmacology resource illuminates target-adverse drug reaction associations of marketed drugs” (Nat Commun, 2023).

Key:
[1] = molecular target: T1, Estrogen receptor (Homo sapiens, UniProt P03372)
T1 sequence (P03372 whole entry): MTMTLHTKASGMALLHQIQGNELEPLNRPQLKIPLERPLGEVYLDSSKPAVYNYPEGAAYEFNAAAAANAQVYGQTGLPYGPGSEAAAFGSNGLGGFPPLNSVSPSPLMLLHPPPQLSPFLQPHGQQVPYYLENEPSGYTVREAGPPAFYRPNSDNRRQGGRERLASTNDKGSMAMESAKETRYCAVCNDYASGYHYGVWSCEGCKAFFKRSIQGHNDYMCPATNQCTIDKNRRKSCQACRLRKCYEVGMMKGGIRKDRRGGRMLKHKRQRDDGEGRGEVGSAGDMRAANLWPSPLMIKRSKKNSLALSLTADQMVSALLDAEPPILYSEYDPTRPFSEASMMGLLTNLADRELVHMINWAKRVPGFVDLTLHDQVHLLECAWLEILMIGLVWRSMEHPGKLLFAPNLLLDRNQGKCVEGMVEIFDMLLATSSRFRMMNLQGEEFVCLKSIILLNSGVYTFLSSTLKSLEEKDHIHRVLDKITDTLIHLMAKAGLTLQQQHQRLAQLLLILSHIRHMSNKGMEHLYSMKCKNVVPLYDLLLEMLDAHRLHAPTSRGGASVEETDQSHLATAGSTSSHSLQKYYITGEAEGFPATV

[2] = molecular target: Voltage-gated inwardly rectifying potassium channel KCNH2 (Homo sapiens, UniProt Q12809); format: functional; conditions: read-out: AC50
Voltage-gated inwardly rectifying potassium channel KCNH2, sequence (Q12809 whole entry): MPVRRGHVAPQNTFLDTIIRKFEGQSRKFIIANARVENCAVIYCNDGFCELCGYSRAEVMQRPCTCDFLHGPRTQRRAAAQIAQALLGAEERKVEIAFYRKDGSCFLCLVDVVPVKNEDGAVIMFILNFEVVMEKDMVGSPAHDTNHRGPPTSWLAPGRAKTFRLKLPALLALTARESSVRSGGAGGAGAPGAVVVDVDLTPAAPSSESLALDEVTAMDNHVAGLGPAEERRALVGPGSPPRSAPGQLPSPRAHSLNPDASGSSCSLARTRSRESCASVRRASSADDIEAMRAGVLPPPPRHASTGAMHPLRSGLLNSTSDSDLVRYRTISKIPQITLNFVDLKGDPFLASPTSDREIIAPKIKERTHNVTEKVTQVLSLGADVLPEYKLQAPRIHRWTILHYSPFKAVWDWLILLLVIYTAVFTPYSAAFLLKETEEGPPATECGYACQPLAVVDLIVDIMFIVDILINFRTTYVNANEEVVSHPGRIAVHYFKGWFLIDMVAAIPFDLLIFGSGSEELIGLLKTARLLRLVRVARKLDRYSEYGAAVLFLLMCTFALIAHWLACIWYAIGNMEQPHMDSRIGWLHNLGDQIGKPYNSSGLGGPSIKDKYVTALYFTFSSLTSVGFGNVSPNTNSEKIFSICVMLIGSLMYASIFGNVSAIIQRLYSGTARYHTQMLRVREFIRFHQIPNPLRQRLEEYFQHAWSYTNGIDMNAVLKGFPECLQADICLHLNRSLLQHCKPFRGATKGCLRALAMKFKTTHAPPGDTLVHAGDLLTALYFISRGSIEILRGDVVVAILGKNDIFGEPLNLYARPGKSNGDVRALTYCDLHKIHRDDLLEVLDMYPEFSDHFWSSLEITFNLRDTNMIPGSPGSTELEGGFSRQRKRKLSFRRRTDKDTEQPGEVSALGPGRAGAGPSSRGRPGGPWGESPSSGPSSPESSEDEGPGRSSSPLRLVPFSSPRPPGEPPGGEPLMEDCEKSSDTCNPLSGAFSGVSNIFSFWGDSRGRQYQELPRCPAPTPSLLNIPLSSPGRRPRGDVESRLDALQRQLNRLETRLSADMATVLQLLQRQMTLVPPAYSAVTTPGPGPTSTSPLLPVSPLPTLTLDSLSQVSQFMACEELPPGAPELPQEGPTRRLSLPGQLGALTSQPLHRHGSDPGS

[3] = molecular target: Acetylcholinesterase (Homo sapiens, UniProt P22303); format: functional
[4] = molecular target: T2, Alpha-1A adrenergic receptor (Homo sapiens, UniProt P35348); format: functional, cell-based
T2 sequence (P35348 whole entry): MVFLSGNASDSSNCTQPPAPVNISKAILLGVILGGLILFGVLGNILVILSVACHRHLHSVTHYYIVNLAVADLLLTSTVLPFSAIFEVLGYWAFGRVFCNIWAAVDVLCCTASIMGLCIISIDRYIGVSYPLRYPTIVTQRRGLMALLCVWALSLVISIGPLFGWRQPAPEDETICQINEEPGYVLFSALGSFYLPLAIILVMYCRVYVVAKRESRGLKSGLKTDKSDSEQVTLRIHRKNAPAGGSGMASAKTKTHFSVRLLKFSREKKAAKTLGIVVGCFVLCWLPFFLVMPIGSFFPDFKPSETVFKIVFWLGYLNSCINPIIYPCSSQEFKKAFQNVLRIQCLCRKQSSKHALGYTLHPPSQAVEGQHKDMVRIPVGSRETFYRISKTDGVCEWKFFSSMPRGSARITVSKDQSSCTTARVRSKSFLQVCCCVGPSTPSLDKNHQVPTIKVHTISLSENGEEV

[5] = molecular target: T3, Thromboxane A2 receptor (Homo sapiens, UniProt P21731); format: functional, cell-based
T3 sequence (P21731 whole entry): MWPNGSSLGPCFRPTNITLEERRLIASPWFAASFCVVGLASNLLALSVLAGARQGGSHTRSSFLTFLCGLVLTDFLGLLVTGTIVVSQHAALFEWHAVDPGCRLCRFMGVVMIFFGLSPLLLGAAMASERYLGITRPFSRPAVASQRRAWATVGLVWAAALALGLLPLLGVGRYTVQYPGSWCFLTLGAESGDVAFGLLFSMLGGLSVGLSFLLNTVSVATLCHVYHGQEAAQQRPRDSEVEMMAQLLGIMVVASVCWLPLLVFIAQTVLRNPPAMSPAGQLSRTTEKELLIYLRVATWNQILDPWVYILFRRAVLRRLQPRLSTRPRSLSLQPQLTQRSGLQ

[6] = molecular target: Prostaglandin G/H synthase 1 (Homo sapiens, UniProt P23219); format: functional
Prostaglandin G/H synthase 1, sequence (P23219 whole entry): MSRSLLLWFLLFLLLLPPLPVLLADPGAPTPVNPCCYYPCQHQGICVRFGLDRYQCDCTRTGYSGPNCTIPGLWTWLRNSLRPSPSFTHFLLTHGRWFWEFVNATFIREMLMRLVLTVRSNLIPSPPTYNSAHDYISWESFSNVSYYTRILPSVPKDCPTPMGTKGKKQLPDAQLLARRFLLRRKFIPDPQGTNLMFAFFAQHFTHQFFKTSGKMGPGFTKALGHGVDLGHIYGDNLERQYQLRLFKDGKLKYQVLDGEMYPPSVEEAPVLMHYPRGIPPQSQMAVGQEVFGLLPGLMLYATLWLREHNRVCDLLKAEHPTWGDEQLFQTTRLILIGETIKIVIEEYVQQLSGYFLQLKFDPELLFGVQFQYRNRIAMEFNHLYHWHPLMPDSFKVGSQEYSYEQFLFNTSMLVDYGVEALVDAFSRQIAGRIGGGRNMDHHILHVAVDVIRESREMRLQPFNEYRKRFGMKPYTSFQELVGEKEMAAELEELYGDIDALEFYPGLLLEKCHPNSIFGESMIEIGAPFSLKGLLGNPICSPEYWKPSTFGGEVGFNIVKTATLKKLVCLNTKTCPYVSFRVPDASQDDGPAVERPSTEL

[7] = molecular target: T4, Amine oxidase [flavin-containing] A (Homo sapiens, UniProt P21397); format: functional
T4 sequence (P21397 whole entry): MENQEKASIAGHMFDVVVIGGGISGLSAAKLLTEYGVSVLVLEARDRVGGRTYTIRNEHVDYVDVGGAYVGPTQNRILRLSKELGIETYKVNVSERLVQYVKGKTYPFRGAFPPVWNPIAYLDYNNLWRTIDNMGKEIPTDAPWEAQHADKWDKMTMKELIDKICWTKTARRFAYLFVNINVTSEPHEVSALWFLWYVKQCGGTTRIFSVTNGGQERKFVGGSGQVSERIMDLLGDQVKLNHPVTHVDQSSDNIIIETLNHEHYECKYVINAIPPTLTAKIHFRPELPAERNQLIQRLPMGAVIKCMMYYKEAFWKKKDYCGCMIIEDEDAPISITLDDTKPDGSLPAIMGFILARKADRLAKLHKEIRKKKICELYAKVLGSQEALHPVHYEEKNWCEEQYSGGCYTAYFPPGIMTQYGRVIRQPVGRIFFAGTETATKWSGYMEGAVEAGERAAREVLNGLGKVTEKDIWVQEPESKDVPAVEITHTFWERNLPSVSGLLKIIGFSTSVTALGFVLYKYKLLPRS

[8] = molecular target: D(3) dopamine receptor (Homo sapiens, UniProt P35462)
D(3) dopamine receptor, sequence (P35462 whole entry): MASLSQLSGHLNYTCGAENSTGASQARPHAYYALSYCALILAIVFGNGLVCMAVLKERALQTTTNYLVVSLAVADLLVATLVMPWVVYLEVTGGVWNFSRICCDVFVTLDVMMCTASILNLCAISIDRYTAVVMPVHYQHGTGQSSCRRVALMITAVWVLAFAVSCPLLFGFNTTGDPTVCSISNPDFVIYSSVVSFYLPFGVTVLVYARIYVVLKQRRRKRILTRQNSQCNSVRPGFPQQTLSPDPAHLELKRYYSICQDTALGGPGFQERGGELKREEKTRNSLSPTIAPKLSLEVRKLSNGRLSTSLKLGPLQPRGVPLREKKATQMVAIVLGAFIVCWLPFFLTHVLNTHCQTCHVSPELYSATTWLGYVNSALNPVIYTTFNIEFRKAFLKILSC

[9] = molecular target: Sodium-dependent serotonin transporter (Homo sapiens, UniProt P31645)
Sodium-dependent serotonin transporter, sequence (P31645 whole entry): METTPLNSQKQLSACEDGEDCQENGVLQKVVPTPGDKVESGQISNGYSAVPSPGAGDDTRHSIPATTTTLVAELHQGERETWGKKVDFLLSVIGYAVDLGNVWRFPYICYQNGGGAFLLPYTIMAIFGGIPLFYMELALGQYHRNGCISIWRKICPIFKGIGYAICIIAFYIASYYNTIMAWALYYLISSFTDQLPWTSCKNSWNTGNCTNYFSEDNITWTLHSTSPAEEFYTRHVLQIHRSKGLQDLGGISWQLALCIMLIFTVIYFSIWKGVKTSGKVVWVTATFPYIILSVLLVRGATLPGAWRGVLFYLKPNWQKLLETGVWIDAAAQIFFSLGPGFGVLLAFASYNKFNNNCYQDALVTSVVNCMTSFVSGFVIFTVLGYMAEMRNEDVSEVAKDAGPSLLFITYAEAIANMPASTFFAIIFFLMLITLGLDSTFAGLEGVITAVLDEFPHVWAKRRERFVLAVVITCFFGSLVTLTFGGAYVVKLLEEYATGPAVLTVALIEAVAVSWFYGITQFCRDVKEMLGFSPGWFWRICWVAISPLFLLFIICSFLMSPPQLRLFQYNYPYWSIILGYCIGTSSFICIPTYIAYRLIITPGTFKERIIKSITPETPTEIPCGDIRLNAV

[10] = molecular target: T3, Thromboxane A2 receptor; format: functional, cell-based; remark: listed apart in the source
[11] = molecular target: Mu-type opioid receptor (Homo sapiens, UniProt P35372)
Mu-type opioid receptor, sequence (P35372 whole entry): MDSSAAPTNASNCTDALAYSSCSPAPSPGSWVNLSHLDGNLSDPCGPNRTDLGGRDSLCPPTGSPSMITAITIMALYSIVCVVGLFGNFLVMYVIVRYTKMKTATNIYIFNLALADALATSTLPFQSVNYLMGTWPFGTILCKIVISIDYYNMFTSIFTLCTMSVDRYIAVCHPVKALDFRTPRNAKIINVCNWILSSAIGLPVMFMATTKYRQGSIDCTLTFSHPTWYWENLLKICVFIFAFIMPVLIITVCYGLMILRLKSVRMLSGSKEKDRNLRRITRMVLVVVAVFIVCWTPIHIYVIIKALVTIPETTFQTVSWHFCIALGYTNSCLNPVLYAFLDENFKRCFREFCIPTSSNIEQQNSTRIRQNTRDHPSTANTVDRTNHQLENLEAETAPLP

[12] = molecular target: Sodium-dependent dopamine transporter (Homo sapiens, UniProt Q01959)
Sodium-dependent dopamine transporter, sequence (Q01959 whole entry): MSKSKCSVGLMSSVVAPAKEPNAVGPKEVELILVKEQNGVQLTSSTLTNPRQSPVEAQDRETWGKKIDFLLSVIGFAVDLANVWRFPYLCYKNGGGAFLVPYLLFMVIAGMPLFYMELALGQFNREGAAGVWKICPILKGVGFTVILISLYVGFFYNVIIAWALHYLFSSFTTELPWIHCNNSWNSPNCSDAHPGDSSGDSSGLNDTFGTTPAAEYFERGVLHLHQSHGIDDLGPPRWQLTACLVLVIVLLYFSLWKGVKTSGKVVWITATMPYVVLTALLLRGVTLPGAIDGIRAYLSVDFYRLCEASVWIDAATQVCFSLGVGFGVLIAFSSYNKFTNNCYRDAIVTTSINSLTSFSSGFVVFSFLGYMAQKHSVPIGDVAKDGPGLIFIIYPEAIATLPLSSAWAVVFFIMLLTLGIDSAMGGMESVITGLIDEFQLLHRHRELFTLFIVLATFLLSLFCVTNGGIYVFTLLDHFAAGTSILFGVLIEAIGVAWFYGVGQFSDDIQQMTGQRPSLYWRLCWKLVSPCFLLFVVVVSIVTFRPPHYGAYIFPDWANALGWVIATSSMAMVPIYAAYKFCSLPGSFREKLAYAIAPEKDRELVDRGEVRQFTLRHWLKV

[13] = molecular target: T2, Alpha-1A adrenergic receptor; format: functional, cell-based; remark: listed apart in the source
[14] = molecular target: Sodium-dependent noradrenaline transporter (Homo sapiens, UniProt P23975)
Sodium-dependent noradrenaline transporter, sequence (P23975 whole entry): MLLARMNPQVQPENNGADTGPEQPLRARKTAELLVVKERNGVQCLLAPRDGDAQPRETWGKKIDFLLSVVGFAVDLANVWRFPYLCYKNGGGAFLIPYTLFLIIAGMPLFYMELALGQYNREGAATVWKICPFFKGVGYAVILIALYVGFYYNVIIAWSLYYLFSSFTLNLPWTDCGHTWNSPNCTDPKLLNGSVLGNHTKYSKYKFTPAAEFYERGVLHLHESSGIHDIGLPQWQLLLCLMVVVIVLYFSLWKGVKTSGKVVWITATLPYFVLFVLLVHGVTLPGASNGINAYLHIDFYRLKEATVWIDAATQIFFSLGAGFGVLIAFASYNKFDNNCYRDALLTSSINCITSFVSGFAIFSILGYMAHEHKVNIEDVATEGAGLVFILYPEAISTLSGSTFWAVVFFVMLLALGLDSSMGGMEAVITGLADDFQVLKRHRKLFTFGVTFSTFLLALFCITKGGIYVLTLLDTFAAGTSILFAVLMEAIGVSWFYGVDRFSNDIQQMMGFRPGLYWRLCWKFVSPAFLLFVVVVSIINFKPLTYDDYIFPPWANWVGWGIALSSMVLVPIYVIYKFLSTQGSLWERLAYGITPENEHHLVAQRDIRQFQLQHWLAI

[15] = molecular target: D(1A) dopamine receptor (Homo sapiens, UniProt P21728)
D(1A) dopamine receptor, sequence (P21728 whole entry): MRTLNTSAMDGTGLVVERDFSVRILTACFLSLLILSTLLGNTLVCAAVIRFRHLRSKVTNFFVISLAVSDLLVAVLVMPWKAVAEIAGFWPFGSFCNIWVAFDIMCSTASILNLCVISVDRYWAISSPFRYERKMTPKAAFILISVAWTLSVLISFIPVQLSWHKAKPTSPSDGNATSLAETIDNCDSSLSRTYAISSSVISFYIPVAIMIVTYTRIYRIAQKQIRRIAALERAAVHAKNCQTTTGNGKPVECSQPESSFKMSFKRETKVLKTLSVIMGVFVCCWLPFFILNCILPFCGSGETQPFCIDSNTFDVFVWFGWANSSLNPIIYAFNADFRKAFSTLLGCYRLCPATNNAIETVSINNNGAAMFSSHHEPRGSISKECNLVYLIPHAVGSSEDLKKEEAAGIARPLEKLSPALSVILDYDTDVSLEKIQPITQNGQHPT
Also: assay procedure not described here.

Row | Structure (SMILES) | AC50 [1] | AC50 [2] | AC50 [3] | AC50 [4] | AC50 [5] | AC50 [6] | AC50 [7] | AC50 [8] | AC50 [9] | AC50 [10] | AC50 [11] | AC50 [12] | AC50 [13] | AC50 [14] | AC50 [15]
1 | CN1CCC2=C(C1)c1ccccc1Cc1ccccc12 [SETIPTILINE] | > 30 µM | 13 µM | > 30 µM | 0.231 µM | > 30 µM | > 30 µM | > 30 µM | 0.543 µM | 8.15 µM | > 30 µM | 12.8 µM | 24.1 µM | > 30 µM | 3.52 µM | 0.0882 µM
2 | CC(C)Cc1ccc(C(C)C(=O)NO)cc1 (centres undefined) [IBUPROXAM] | > 30 µM | > 30 µM | > 30 µM | > 30 µM | > 30 µM | > 30 µM | > 30 µM | > 30 µM | > 30 µM | > 30 µM | > 30 µM | > 30 µM | > 30 µM | > 30 µM | > 30 µM
3 | COc1ccc2c(c1)OC(C)(C)C(c1ccccc1)C2c1ccc(OCCN2CCCC2)cc1 (centres undefined) [ORMELOXIFENE] | 1.29 µM | 2.7 µM | > 30 µM |  | 12.2 µM | 3.31 µM | > 30 µM | 0.205 µM | 13.2 µM | > 30 µM | 11.2 µM | 3 µM | 13.4 µM | 4.9 µM | 6.98 µM
4 | COc1ccc(CCC(C)NCC(O)c2ccc(O)c([S+](C)[O-])c2)cc1 (centres undefined) [SULFINALOL] | > 30 µM | > 30 µM | > 30 µM | 20.3 µM | > 30 µM | > 30 µM | > 30 µM | > 30 µM | 0.866 µM | > 30 µM | > 30 µM | > 30 µM | > 30 µM | 10.6 µM | > 30 µM
5 | CCOc1ccc(/C=C2\NCCc3cc(OCC)c(OCC)cc32)cc1OCC [DROTAVERINE] | > 30 µM | 2.9 µM | 26.1 µM | > 10 µM | > 30 µM | 9.33 µM | > 30 µM | > 30 µM | 3 µM | > 30 µM | > 10 µM | > 30 µM | > 30 µM | > 30 µM | > 30 µM
6 | O=C(Nc1ccccc1)OCC(CN1CCCCC1)OC(=O)Nc1ccccc1 (centres undefined) [DIPERODON] | > 30 µM | 5.4 µM | > 30 µM | > 30 µM | > 30 µM | > 30 µM | > 30 µM | 23.5 µM | > 30 µM | > 30 µM | 11.2 µM | > 30 µM | > 30 µM | > 30 µM | > 30 µM
7 | C[C@@H]1C[C@H]2[C@@H]3C[C@H](F)C4=CC(=O)C=C[C@]4(C)[C@@]3(F)[C@@H](O)C[C@]2(C)[C@@]1(O)C(=O)COC(=O)C(C)(C)C [FLUMETHASONE PIVALATE] | > 30 µM | > 30 µM | > 30 µM | > 30 µM | > 30 µM | > 30 µM | > 30 µM | > 30 µM | > 30 µM | > 30 µM | > 30 µM | > 30 µM | > 30 µM | > 30 µM | > 30 µM
8 | O=C1CN=C(c2ccccc2)c2c(sc3c2CCCC3)N1 [BENTAZEPAM] | > 30 µM | > 30 µM | > 30 µM | 12.4 µM | > 30 µM | > 30 µM | > 30 µM | > 30 µM | > 30 µM | > 30 µM | > 30 µM | > 30 µM | > 30 µM | > 30 µM | > 30 µM
9 | CC/C=C\C/C=C\C/C=C\C/C=C\C/C=C\CCCC(=O)O [ICOSAPENT] | > 30 µM | > 30 µM | > 30 µM | > 30 µM | > 30 µM | > 10 µM | > 30 µM | > 30 µM | > 30 µM | > 30 µM | > 30 µM | > 30 µM | > 30 µM | > 30 µM | > 30 µM
10 | CCO[C@@H](Cc1ccc(OCCn2c(C)ccc2-c2ccc(SC)cc2)cc1)C(=O)O [SAROGLITAZAR] | > 30 µM | > 30 µM | > 30 µM |  |  | 9.49 µM | > 30 µM | 22.2 µM | > 30 µM | 16.4 µM | > 30 µM | > 30 µM | 15 µM | 24.5 µM | > 30 µM
11 | CCN(CC)CCNc1ccc(C)c2sc3ccccc3c(=O)c12 [LUCANTHONE] | > 30 µM | 1.3 µM | > 30 µM |  | 13.4 µM | > 30 µM | 16.3 µM | 0.91 µM | 6.25 µM | > 30 µM | 11.8 µM | 3.42 µM | 17.9 µM | 2.68 µM | 6.04 µM
12 | CS(=O)(=O)Nc1cc2occ(NC=O)c(=O)c2cc1Oc1ccccc1 [IGURATIMOD] |  | > 30 µM | > 30 µM | > 30 µM | > 30 µM | 4.51 µM | > 30 µM | > 30 µM | > 30 µM | > 30 µM | > 30 µM | > 30 µM | > 30 µM | > 30 µM | > 30 µM
13 | CC(=O)OC(C)C[N+](C)(C)C (centres undefined) [METHACHOLINE] | > 30 µM | > 30 µM | > 30 µM | > 30 µM |  | > 30 µM | > 30 µM | > 30 µM | > 30 µM | 0.824 µM | > 30 µM | > 30 µM | > 30 µM | > 30 µM | > 30 µM
